Experimental data taken from ChEMBL document CHEMBL4610048, “Design, synthesis, and evaluation of novel 4-amino-2-(4-benzylpiperazin-1-yl)methylbenzonitrile compounds as Zika inhibitors” (Bioorg Med Chem Lett, 2020).
The source made the active and inactive calls. The rule behind the calls is not given here.

How the values were obtained:
Zika virus [1] = assay: Antiviral activity against Zika virus infected in African green monkey Vero E6 cells assessed as inhibition of viral induced cytopathic effect at 10 uM relative to control; assay type: functional; details: Vero C1008
[2] = Cytotoxicity against African green monkey Vero E6 cells assessed as cell viability at 10 uM relative to control; assay type: cell-based, Vero C1008; details: chlorocebus sabaeus, read-out: Activity
Zika virus [3] = assay: Antiviral activity against Zika virus infected in African green monkey Vero E6 cells assessed as reduction in viral induced cytopathic effect; assay type: functional, organism-based; details: Vero C1008
Zika virus [4] = assay: Antiviral activity against Zika virus infected in African green monkey Vero E6 cells assessed as suppression of viral envelope protein expression at 1.25 to 10 uM incubated for 96 hrs by Western blot analysis; assay type: functional, organism-based; details: Vero C1008
Zika virus [5] = assay: Antiviral activity against Zika virus infected in African green monkey Vero E6 cells assessed as suppression of viral RNA synthesis at 1.25 to 10 uM incubated for 96 hrs by qRT-PCR analysis; assay type: functional, organism-based; details: Vero C1008
[6] = Selectivity index, ratio of CC50 for African green monkey Vero E6 cells to EC50 for Zika virus infected in African green monkey Vero E6 cells assessed as inhibition of viral induced cytopathic effect; assay type: toxicity, Vero C1008; details: read-out: Ratio CC50/EC50
[7] = Cytotoxicity against African green monkey Vero E6 cells assessed as reduction in cell viability; assay type: cell-based, Vero C1008; details: chlorocebus sabaeus
Zika virus [8] = assay: Antiviral activity against Zika virus infected in African green monkey Vero E6 cells assessed as suppression of viral RNA synthesis at 10 uM incubated for 96 hrs by qRT-PCR analysis; assay type: functional, organism-based; details: Vero C1008
Zika virus [9] = assay: Antiviral activity against Zika virus infected in African green monkey Vero E6 cells assessed as suppression of viral envelope protein expression at 10 uM incubated for 96 hrs by Western blot analysis; assay type: functional, organism-based; details: Vero C1008
Zika virus [10] = assay: Antiviral activity against Zika virus infected in African green monkey Vero E6 cells assessed as suppression of viral envelope protein expression incubated for 96 hrs by Western blot analysis; assay type: functional, organism-based; details: Vero C1008
Zika virus [11] = assay: Antiviral activity against Zika virus infected in African green monkey Vero E6 cells assessed as suppression of viral RNA synthesis incubated for 96 hrs by qRT-PCR analysis; assay type: functional, organism-based; details: Vero C1008
[12] = Cytotoxicity against African green monkey Vero E6 cells assessed as cell viability at 40 uM relative to control; assay type: cell-based, Vero C1008; details: chlorocebus sabaeus, read-out: Activity
Zika virus [13] = assay: Antiviral activity against Zika virus infected in African green monkey Vero E6 cells assessed as inhibition of viral induced cytopathic effect at 40 uM relative to control; assay type: functional; details: Vero C1008

`N#Cc1ccc(NCCN2CCOCC2)cc1CN1CCN(Cc2ccc(C(F)(F)F)cc2)CC1` showed an inhibition at 10 µM (Zika virus [1]) of 47.5% and a viability at 10 µM [2] of 79.2%.
In the case of `CN1CCCN(c2ccc(C#N)c(CN3CCN(Cc4ccc(C#N)cc4)CC3)c2)CC1`, the EC50 (Zika virus [3]) is reported as 4.4 µM, the inhibition (Zika virus [4]) is reported as “inactive” and the inhibition at 10 µM (Zika virus [1]) is reported as 77.4%. For the same compound, the viability at 10 µM [2] was 76%, the inhibition (Zika virus [5]) was “inactive” and the selectivity ratio [6] was greater than 22. For the same compound, the CC50 [7] was greater than 100 µM.
Work on `CN1CCCN(c2ccc(C#N)c(CN3CCN(Cc4ccccc4C#N)CC3)c2)CC1` yielded an inhibition at 10 µM (Zika virus [1]) of 36.2% and a viability at 10 µM [2] of 87.1%.
Work on `CN(CCc1ccccc1)c1ccc(C#N)c(CN2CCN(Cc3ccc(C(F)(F)F)cc3)CC2)c1` yielded an inhibition at 10 µM (Zika virus [1]) of 35.1% and a viability at 10 µM [2] of 73.6%.
Compound `CN(C)CCN(C)c1ccc(C#N)c(CN2CCN(Cc3ccc(F)cc3)CC2)c1` has an inhibition at 10 µM (Zika virus [1]) of 60.7% and a viability at 10 µM [2] of 85.1%.
`CN(C)CCOc1ccc(C#N)c(CN2CCN(Cc3ccc(C(F)(F)F)cc3)CC2)c1` showed an inhibition at 10 µM (Zika virus [1]) of 32.8% and a viability at 10 µM [2] of 80.1%.
`CN(C)CCN(C)c1ccc(C#N)c(CN2CCN(Cc3ccc(Cl)cc3)CC2)c1` gave an inhibition at 10 µM (Zika virus [1]) of 50.9% and a viability at 10 µM [2] of 82.1%.
`CN(C)CCN(C)c1ccc(C#N)c(CN2CCN(C3CCc4ccccc4C3)CC2)c1` (stereo not given) showed an inhibition at 10 µM (Zika virus [1]) of 81.8% and a viability at 10 µM [2] of 67.8%.
With `N#Cc1ccc(N2CCNCC2)cc1CN1CCN(Cc2ccc(C(F)(F)F)cc2)CC1` the inhibition at 10 µM (Zika virus [1]) was 0.5% and the viability at 10 µM [2] was 89%.
With `CN(C)c1ccc(C#N)c(CN2CCN(Cc3ccc(C(F)(F)F)cc3)CC2)c1` the inhibition at 10 µM (Zika virus [1]) was 19.2% and the viability at 10 µM [2] was 90.5%.
With `CN1CCCN(c2ccc(C#N)c(CN3CCN(Cc4ccc(F)cc4)CC3)c2)CC1` the inhibition at 10 µM (Zika virus [1]) was 55.1% and the viability at 10 µM [2] was 79.3%.
For `CN1CCN(c2ccc(C#N)c(CN3CCN(Cc4ccc(C(F)(F)F)cc4)CC3)c2)CC1`, the inhibition at 10 µM (Zika virus [1]) was 0.3% and the viability at 10 µM [2] was 84.5%.
In the case of `CC(c1ccccc1)N1CCN(Cc2ccccc2C#N)CC1` (stereo not given), the inhibition at 10 µM (Zika virus [1]) is reported as 35.8% and the viability at 10 µM [2] is reported as 77.5%.
`CN1CCCN(c2ccc(C#N)c(CN3CCN(Cc4ccc(C(F)(F)F)cc4)CC3)c2)CC1` gave an inhibition at 10 µM (Zika virus [1]) of 47.5% and a viability at 10 µM [2] of 81.3%.
`CC(=O)N1CCN(c2ccc(C#N)c(CN3CCN(Cc4ccc(C(F)(F)F)cc4)CC3)c2)CC1` showed an inhibition at 10 µM (Zika virus [1]) of 15.1% and a viability at 10 µM [2] of 89.1%.
In the case of `N#Cc1ccc(NCCCn2ccnc2)cc1CN1CCN(Cc2ccc(C(F)(F)F)cc2)CC1`, the inhibition (Zika virus [8]) is reported as “Active”, the EC50 (Zika virus [3]) is reported as 4.9 µM and the inhibition at 10 µM (Zika virus [1]) is reported as 66.5%. The viability at 10 µM [2] was 70%, the inhibition (Zika virus [9]) was “Active” and the selectivity ratio [6] was 5. For the same compound, the CC50 [7] was 23.7 µM.
In the case of `CN1CCCN(c2ccc(C#N)c(CN3CCN(Cc4ccccc4)CC3)c2)CC1`, the EC50 (Zika virus [3]) is reported as 5.3 µM, the inhibition at 10 µM (Zika virus [1]) is reported as 84.3% and the viability at 10 µM [2] is reported as 93.6%. For the same compound, the selectivity ratio [6] was greater than 19 and the CC50 [7] was greater than 100 µM.
`COc1ccc(CN2CCN(Cc3cc(N4CCCN(C)CC4)ccc3C#N)CC2)cc1` showed an inhibition at 10 µM (Zika virus [1]) of 59.2% and a viability at 10 µM [2] of 65.8%.
Work on `CN(C)CCN(C)c1ccc(C#N)c(CN2CCN(Cc3cccc(Cl)c3)CC2)c1` yielded an inhibition at 10 µM (Zika virus [1]) of 54.8% and a viability at 10 µM [2] of 73.6%.
`CC(c1ccccc1)N1CCN(Cc2cc(N3CCCN(C)CC3)ccc2C#N)CC1` (stereo not given) showed an inhibition at 10 µM (Zika virus [1]) of 26.7% and a viability at 10 µM [2] of 55.1%.
`CC(c1ccccc1)N1CCN(Cc2cc(N(C)CCN(C)C)ccc2C#N)CC1` (stereo not given) showed an inhibition at 10 µM (Zika virus [1]) of 43% and a viability at 10 µM [2] of 64.7%.
Compound `N#Cc1ccc(NCCn2cccc2)cc1CN1CCN(Cc2ccc(C(F)(F)F)cc2)CC1` has an inhibition at 10 µM (Zika virus [1]) of 56.2% and a viability at 10 µM [2] of 75.7%.
With `CN(C)CCN(C)c1ccc(C#N)c(CN2CCN(Cc3ccccc3Cl)CC2)c1` the inhibition (Zika virus [10]) was “Dose-dependent effect”, the inhibition (Zika virus [11]) was “Dose-dependent effect” and the EC50 (Zika virus [3]) was 5.1 µM. The inhibition at 10 µM (Zika virus [1]) was 70.4%, the viability at 10 µM [2] was 86.1% and the selectivity ratio [6] was greater than 20. For the same compound, the CC50 [7] was greater than 100 µM.
`N#Cc1ccccc1CN1CCN(Cc2ccccc2C#N)CC1` gave an inhibition at 10 µM (Zika virus [1]) of 34.7% and a viability at 10 µM [2] of 93.8%.
In the case of `CN(C)CCN(C)c1ccc(C#N)c(CN2CCN(Cc3ccc(C#N)cc3)CC2)c1`, the EC50 (Zika virus [3]) is reported as 5.6 µM, the inhibition at 10 µM (Zika virus [1]) is reported as 75.5% and the viability at 10 µM [2] is reported as 77.4%. For the same compound, the selectivity ratio [6] was 10 and the CC50 [7] was 66 µM.
Work on `N#Cc1ccc(CN2CCN(Cc3ccc(C#N)cc3)CC2)cc1` yielded an inhibition at 10 µM (Zika virus [1]) of 12.6% and a viability at 10 µM [2] of 89.6%.
Compound `NC(=O)c1ncn([C@@H]2O[C@H](CO)[C@@H](O)[C@H]2O)n1` [RIBAVIRIN] has a viability at 40 µM [12] of 94.5%, an EC50 (Zika virus [3]) of 33 µM and a selectivity ratio [6] greater than 3. For the same compound, the inhibition at 40 µM (Zika virus [13]) was 37% and the CC50 [7] was greater than 100 µM.
For `N#Cc1ccc(NCCCn2ccnc2)cc1CN1CCN(Cc2ccc(F)cc2)CC1`, the inhibition at 10 µM (Zika virus [1]) was 58.3% and the viability at 10 µM [2] was 96.5%.
